The text below walks through data of PubChem BioAssay (NCI).

What all share (assay): inhibition of tumour cell growth, NCI panel, 48 h
Test [1] has as its system SR leukemia.
In test [2] the test system is RPMI-8226 leukemia.
In test [3] the test system is HCC-2998 colon.
The test system of test [4] is SK-MEL-28 melanoma.
Test [5] deals with SK-OV-3 ovarian.
The test system of test [6] is TK-10 renal.
Test [7] has as its system NCI-H522 lung.
In test [8] the test system is OVCAR-3 ovarian.
Test [9] has as its system K-562 leukemia.
The test system of test [10] is ACHN renal.

Values joined by “and” are separate entries in the source; they are usually repeats but may differ in a detail not shown here. Equal values may be shown once.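 All cell lines were grown in 96-well plates and treated with compound for 48 hours. The concentration for 50% growth inhibition is given as GI50. At the TGI there is no net growth.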

With `O=C(O)CSc1n[nH]c(-c2ccc(O)cc2)n1`, the TGI in test [1], in test [2], in [3], in test [4], in test [5] and in test [6] was more than 100 µM each time. Moreover, the TGI in [7], in test [8], in test [9] and in test [10] was more than 100 µM each time.
`C=C1C(=O)O[C@H]2[C@H]1CC/C(COC(=O)c1cc3cc(F)ccc3[nH]1)=C\CC[C@@]1(C)O[C@@H]21`: the GI50 in test [1] is 2030 nM; in [2], 2000 nM; in [3] it was 2020 nM; in test [4], 1790 nM; in [5], 11.6 µM; in [6] it was 1830 nM. Besides, the GI50 in test [7] is 1660 nM; in test [8], 1200 nM; in test [9], 2240 nM; in [10], 1460 nM. The TGI amounted to 17.6 µM in test [1]; 7.09 µM in test [2]; 3.74 µM in test [3]; 3.69 µM in [4]; 24.1 µM in test [5]; 3.3 µM in test [6]. The TGI came out at 3.38 µM in test [7], 2.66 µM in test [8], 12.1 µM in test [9] and 2.94 µM in test [10].
Take `CC1OC(OCC2OC(Oc3c(-c4ccc(O)cc4)oc4cc(O)cc(O)c4c3=O)C(OC3OCC(O)(CO)C3O)C(O)C2O)C(O)C(O)C1O` (configuration not stated): the TGI in test [1], in [2], in [3], in [4], in test [5] and in test [6] was more than 100 µM throughout. In addition, the TGI in [7] was more than 100 µM; in [8] it was more than 100 µM; in test [9], 74.9 µM; in [10] it was more than 100 µM.
Take `COc1ccc2c(c1)[nH]c(=O)c1c3cc(C)c(C)cc3cn21`: the GI50 in [1] was less than 15.2 nM; in [2] it was less than 10 nM; in test [3], 23.5 nM; in [4] it was less than 10 nM; in test [5] it was less than 0.0194 µM; in [6], 320 nM. The GI50 in test [7] is less than 11.5 nM; in test [8] it was less than 10 nM; in test [9], less than 10 nM; in [10], less than 17.3 nM. The TGI in test [1] was found to be 0.224 µM; in test [2] it was 0.0656 µM; in test [3], 0.0802 µM; in test [4], 1.91 µM; in test [5], 4.59 µM; in test [6], 1.27 µM. Moreover, the TGI in [7] is less than 0.0275 µM; in test [8], less than 0.0143 µM; in [9], 0.14 µM; in [10] it was 1.58 µM.
Take `Cc1cnc2c(C)ccc([N+](=O)[O-])c2c1NCCCN(C)C`: the TGI in test [1], in [2], in test [3], in test [4], in test [5] and in test [6] was more than 100 µM throughout. Besides, the TGI in test [7], in [8], in [9] and in test [10] was more than 100 µM throughout.
With `Cc1ccc(CNc2c3ccccc3nc3ccccc23)cc1`, the GI50 in test [1] is 1560 nM; in test [2], 1480 nM; in test [3], 1720 nM; in test [4] it was 1840 nM; in [5], 2.59 µM; in [6] it was 2970 nM. Besides, the GI50 in [7] was 1670 nM; in test [8] it was 2420 nM; in test [9], 1970 nM; in [10], 1630 nM. Moreover, the TGI in test [1] is 6.22 µM; in test [2] it was 3.86 µM; in test [3] it was 3.74 µM; in test [4], 4.16 µM; in test [5], 10.8 µM; in test [6], 12.6 µM. Besides, the TGI in [7] stood at 4.75 µM; in test [8] it was 6.22 µM; in [9], 13.1 µM; in test [10], 3.95 µM.
In the case of `O=C(c1ccccc1)C(C(=O)c1ccccc1)C1(O)C(=O)c2ccccc2C1=O`, the TGI was more than 100 µM in test [1]; more than 100 µM in test [2]; more than 100 µM in [3]; more than 100 µM in test [4]; more than 100 µM in test [5]; 55.2 µM in [6]. The TGI in test [7] was 42.2 µM; in test [8], more than 100 µM; in test [9], 60.6 µM; in test [10] it was more than 100 µM.
Consider `COc1cc(-c2nn(-c3ccc(NC(=O)c4ccc(Cl)c(Cl)c4)cc3)cc2-c2ccncc2)ccc1Cl`, for which the GI50 is 18700 nM in test [1]; 3030 nM in [2]; 31800 nM in test [3]; 40300 nM in test [4]; more than 100 µM in [5]; more than 100000 nM in [6]. Besides, the GI50 was more than 100000 nM in test [7], more than 100000 nM in test [8], 4050 nM in test [9] and 8060 nM in [10]. In addition, the TGI in test [1] was more than 100 µM; in test [2], 14.1 µM; in [3] it was more than 100 µM; in test [4], more than 100 µM; in test [5] it was more than 100 µM; in test [6] it was more than 100 µM. For the same molecule, the TGI in [7], in test [8], in [9] and in test [10] was more than 100 µM throughout.
As to `C=CCn1c2c(c3ccccc3c1=O)C(=O)c1ccccc1-2`, the TGI in test [1], in test [2], in test [3], in [4], in test [5] and in test [6] was more than 100 µM throughout. Besides, the TGI in test [7], in test [8], in [9] and in [10] was more than 100 µM in each case.
Take `COc1cc(C2CC(c3ccc(C)cc3)=NN2C=O)ccc1Oc1ccnc2cc(Cl)ccc12` (configuration not stated): the GI50 in test [1] was more than 50000 nM; in test [2], more than 50000 nM; in test [3] it was more than 50000 nM; in test [4] it was more than 50000 nM; in [5], 7.2 µM; in [7] it was 2720 nM. Moreover, the GI50 in test [8] was more than 50000 nM; in test [9], more than 50000 nM; in test [10], 4390 nM. Further, the TGI in test [1], in test [2], in test [3], in test [4], in test [5] and in [7] was more than 50 µM in each case. The TGI in test [8], in test [9] and in test [10] was more than 50 µM throughout.
As for `O=C(O)c1c(-c2cccc3ccccc23)sc(-c2cccc3ccccc23)c1C(=O)O`, the TGI in [1], in [2], in test [3], in test [4], in test [5] and in test [6] was more than 100 µM in each case. For the same molecule, the TGI in test [7], in test [8], in [9] and in test [10] was more than 100 µM in each case.
Consider `O=C1NCc2ccc3c(-c4cccc(Cl)c4)c[nH]c3c21`, for which the GI50 in test [1] is 84.9 nM; in test [2] it was 257 nM; in test [3], 734 nM; in [4] it was 2210 nM; in test [5], 0.339 µM; in test [6], 7120 nM. Besides, the GI50 in [7] was 225 nM; in test [8] it was 180 nM; in [9] it was 134 nM; in [10] it was 333 nM. In addition, the TGI in test [1] was more than 50 µM; in [2], 49 µM; in [3] it was more than 22.9 µM; in [4], more than 50 µM; in test [5], more than 50 µM; in test [6] it was more than 50 µM. For the same molecule, the TGI is more than 39 µM in test [7], more than 50 µM in test [8], more than 50 µM in [9] and more than 50 µM in [10].
With `CNc1ccc2nc3ccc(=[N+](C)C)cc-3sc2c1`, the GI50 in test [1] is 635 nM and 2220 nM; in test [2] it was 287 nM and 800 nM; in test [3], 2840 nM and 1120 nM; in test [4] it was 4250 nM and 1550 nM; in test [5], 4.29 µM and 3.81 µM; in test [6] it was 2300 nM and 3360 nM. Besides, the GI50 in test [7] was 291 nM and 465 nM; in [8], 408 nM and 205 nM; in test [9], 513 nM and 756 nM; in test [10], 815 nM and 1020 nM. Also, the TGI is 12.1 µM and > 100 µM in [1]; 14.6 µM and 28 µM in [2]; 15.9 µM and 18.6 µM in test [3]; 14.8 µM and 9.27 µM in [4]; 18.7 µM and 19.1 µM in [5]; 7.69 µM and 14.6 µM in test [6]. Also, the TGI in test [7] is 1.33 µM and 3.79 µM; in test [9], 14.1 µM and 47.4 µM; in [10], 10.6 µM and 4.23 µM.
